Experimental data: US11078228B2, “Ectonucleotidase inhibitors and methods of use thereof” (Calithera Biosciences, Inc., priority 2018, dated 2021)

Molecular target: recombinant CD73 (Homo sapiens (Human), UniProt P21589)
Assay: Assay 2: Inhibition of the CD73 enzyme in vitro (0.05 nM CD73, 1 hour 37° C., Malachite Green)
Assay type: biochemical
Conditions: 0.05 nM CD73, 50 μM AMP, 1 hour at 37° C.
Method: For measurements of soluble CD73 enzyme activity, recombinant CD73 was obtained from R&D Systems, Cat. No. 5795-EN-010. […] Reactions were allowed to proceed for 1 hour at 37° C. before the addition of 100 μL Malachite Green (Cell Signaling Technology, Cat. No. 12776). After 5 minutes at room temperature, absorbance at 630 nm was determined on a microplate spectrophotometer. The concentration of inorganic phosphate was determined using a phosphate standard curve.

recombinant CD73, sequence (P21589 27-547): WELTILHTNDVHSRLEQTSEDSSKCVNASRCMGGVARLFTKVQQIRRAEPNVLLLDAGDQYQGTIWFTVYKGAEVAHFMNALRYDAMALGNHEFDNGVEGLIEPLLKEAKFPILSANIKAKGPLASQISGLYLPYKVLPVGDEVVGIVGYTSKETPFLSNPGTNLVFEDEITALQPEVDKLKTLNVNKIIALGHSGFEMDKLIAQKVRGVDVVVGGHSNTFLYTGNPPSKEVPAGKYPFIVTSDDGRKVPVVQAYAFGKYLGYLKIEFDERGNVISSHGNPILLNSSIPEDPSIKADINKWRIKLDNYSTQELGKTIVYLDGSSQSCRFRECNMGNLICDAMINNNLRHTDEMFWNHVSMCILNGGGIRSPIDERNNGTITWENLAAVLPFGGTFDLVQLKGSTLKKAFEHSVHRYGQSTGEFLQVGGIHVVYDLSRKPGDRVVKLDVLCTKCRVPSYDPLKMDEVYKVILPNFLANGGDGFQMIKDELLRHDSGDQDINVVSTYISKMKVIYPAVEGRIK

IC50 | SMILES
261 nM | C#C[C@@]1(O)[C@@H](CO[C@](Cc2ccc(N3CCCNC3=O)cc2)(C(=O)O)C(=O)OCC)O[C@@H](n2cnc3c(N)nc(Cl)nc32)[C@@H]1O (single isomer, unassigned) [Example 164]
45 nM | C#C[C@@]1(O)[C@@H](CO[C@@](Cc2ccc(N3CCCNC3=O)cc2)(C(=O)O)C(=O)OCC)O[C@@H](n2cnc3c(N)nc(Cl)nc32)[C@@H]1O (single isomer, unassigned) [Example 165]
145 nM | C#C[C@@]1(O)[C@@H](CO[C@H](Cc2ccc(N3CCCNC3=O)cc2)C(=O)O)O[C@@H](n2cnc3c(N)nc(Cl)nc32)[C@@H]1O (single isomer, unassigned) [Example 166]
139 nM | C#C[C@@]1(O)[C@@H](CO[C@@H](Cc2ccc(N3CCCNC3=O)cc2)C(=O)O)O[C@@H](n2cnc3c(N)nc(Cl)nc32)[C@@H]1O (single isomer, unassigned) [Example 167]
8 nM | C#C[C@@]1(O)[C@@H](CO[C@](Cc2ccccc2)(C(=O)O)c2cscn2)O[C@@H](n2cnc3c(NC(C)C)nc(Cl)nc32)[C@@H]1O (single isomer, unassigned) [Example 170]
96 nM | C#C[C@@]1(O)[C@@H](CO[C@@](Cc2ccccc2)(C(=O)O)c2cscn2)O[C@@H](n2cnc3c(NC(C)C)nc(Cl)nc32)[C@@H]1O (single isomer, unassigned) [Example 171]
6 nM | C#C[C@@]1(O)[C@@H](CO[C@](Cc2ccccc2)(C(=O)O)c2cscn2)O[C@@H](n2cnc3c(NCC4CC4)nc(Cl)nc32)[C@@H]1O (single isomer, unassigned) [Example 172]
112 nM | C#C[C@@]1(O)[C@@H](CO[C@@](Cc2ccccc2)(C(=O)O)c2cscn2)O[C@@H](n2cnc3c(NCC4CC4)nc(Cl)nc32)[C@@H]1O (single isomer, unassigned) [Example 173]
147 nM | C#C[C@@H]1[C@@H](O)[C@H](n2cnc3c(N)nc(Cl)nc32)O[C@@H]1COC(Cc1ccccc1)(C(=O)O)C(=O)O [Compound 2, 2-(((2S,3R,4R,5R)-5-(6-amino-2-chloro-9H-purin-9-yl)-3-ethynyl-4-hydroxytetrahydrofuran-2-yl)methoxy)-2-benzylmalonic acid]
1 nM | CC#C[C@@]1(O)[C@@H](COC(Cc2ccccc2)(C(=O)O)C(=O)O)O[C@@H](n2cnc3c(N)nc(Cl)nc32)[C@@H]1O [Compound 3, 2-(((2R,3S,4R,5R)-5-(6-amino-2-chloro-9H-purin-9-yl)-3,4-dihydroxy-3-(prop-1-yn-1-yl)tetrahydrofuran-2-yl)methoxy)-2-benzylmalonic acid]
0.5 nM | Nc1nc(Cl)nc2c1ncn2[C@@H]1O[C@H](COC(Cc2ccccc2)(C(=O)O)C(=O)O)[C@](O)(C#CC2CC2)[C@H]1O [Compound 4, 2-(((2R,3S,4R,5R)-5-(6-amino-2-chloro-9H-purin-9-yl)-3-(cyclopropylethynyl)-3,4-dihydroxytetrahydrofuran-2-yl)methoxy)-2-benzylmalonic acid]
4 nM | C#C[C@@]1(O)[C@@H](COC(Cc2ccnc(Cl)c2)(C(=O)O)C(=O)O)O[C@@H](n2cnc3c(N)nc(Cl)nc32)[C@@H]1O [Compound 5, 2-(((2R,3S,4R,5R)-5-(6-amino-2-chloro-9H-purin-9-yl)-3-ethynyl-3,4-dihydroxytetrahydrofuran-2-yl)methoxy)-2-((2-chloropyridin-4-yl)methyl)malonic acid]
8 nM | C#C[C@@]1(O)[C@@H](COC(Cc2ccncc2)(C(=O)O)C(=O)O)O[C@@H](n2cnc3c(N)nc(Cl)nc32)[C@@H]1O [Compound 7, 2-(((2R,3S,4R,5R)-5-(6-amino-2-chloro-9H-purin-9-yl)-3-ethynyl-3,4-dihydroxytetrahydrofuran-2-yl)methoxy)-2-(pyridin-4-ylmethyl)malonic acid]
2 nM | C#C[C@@]1(O)[C@@H](COC(Cc2ccoc2)(C(=O)O)C(=O)O)O[C@@H](n2cnc3c(N)nc(Cl)nc32)[C@@H]1O [Compound 8, 2-(((2R,3S,4R,5R)-5-(6-amino-2-chloro-9H-purin-9-yl)-3-ethynyl-3,4-dihydroxytetrahydrofuran-2-yl)methoxy)-2-(furan-3-ylmethyl)malonic acid]
0.26 nM | C#C[C@@]1(O)[C@@H](COC(Cc2ccc(N3CCCCC3=O)cc2)(C(=O)O)C(=O)O)O[C@@H](n2cnc3c(N)nc(Cl)nc32)[C@@H]1O [Compound 10, 2-(((2R,3S,4R,5R)-5-(6-amino-2-chloro-9H-purin-9-yl)-3-ethynyl-3,4-dihydroxytetrahydrofuran-2-yl)methoxy)-2-(4-(2-oxopiperidin-1-yl)benzyl)malonic acid]
0.1 nM | C#C[C@@]1(O)[C@@H](COC(Cc2ccc(-c3ccc[nH]c3=O)cc2)(C(=O)O)C(=O)O)O[C@@H](n2cnc3c(N)nc(Cl)nc32)[C@@H]1O [Example 12, 2-(((2R,3S,4R,5R)-5-(6-amino-2-chloro-9H-purin-9-yl)-3-ethynyl-3,4-dihydroxytetrahydrofuran-2-yl)methoxy)-2-(4-(2-oxo-1,2-dihydropyridin-3-yl)benzyl)malonic acid]
0.3 nM | C#C[C@@]1(O)[C@@H](COC(Cc2ccc(-c3ccccc3)c(C(=O)O)c2)(C(=O)O)C(=O)O)O[C@@H](n2cnc3c(N)nc(Cl)nc32)[C@@H]1O [Example 13, 2-(((2R,3S,4R,5R)-5-(6-amino-2-chloro-9H-purin-9-yl)-3-ethynyl-3,4-dihydroxytetrahydrofuran-2-yl)methoxy)-2-((2-carboxy-[1,1′-biphenyl]-4-yl)methyl)malonic acid]
0.6 nM | C#C[C@@]1(O)[C@@H](COC(Cc2ccccc2)(C(=O)O)C(=O)O)O[C@@H](n2cnc3c(-c4ccccc4)nc(Cl)nc32)[C@@H]1O [Example 14, 2-benzyl-2-(((2R,3S,4R,5R)-5-(2-chloro-6-phenyl-9H-purin-9-yl)-3-ethynyl-3,4-dihydroxytetrahydrofuran-2-yl)methoxy)malonic acid]
20 nM | C#C[C@@]1(O)[C@@H](COC(CC=C)(C(=O)O)C(=O)O)O[C@@H](n2cnc3c(N)nc(Cl)nc32)[C@@H]1O [Example 15, 2-allyl-2-(((2R,3S,4R,5R)-5-(6-amino-2-chloro-9H-purin-9-yl)-3-ethynyl-3,4-dihydroxytetrahydrofuran-2-yl)methoxy)malonic acid]
24 nM | C#C[C@@]1(O)[C@@H](COC(CC)(C(=O)O)C(=O)O)O[C@@H](n2cnc3c(N)nc(Cl)nc32)[C@@H]1O [Example 16, 2-(((2R,3S,4R,5R)-5-(6-amino-2-chloro-9H-purin-9-yl)-3-ethynyl-3,4-dihydroxytetrahydrofuran-2-yl)methoxy)-2-ethylmalonic acid]
347 nM | C#C[C@@]1(O)[C@@H](COC(C)(C(=O)O)C(=O)O)O[C@@H](n2cnc3c(N)nc(Cl)nc32)[C@@H]1O [Example 17, 2-(((2R,3S,4R,5R)-5-(6-amino-2-chloro-9H-purin-9-yl)-3-ethynyl-3,4-dihydroxytetrahydrofuran-2-yl)methoxy)-2-methylmalonic acid]
0.3 nM | C#C[C@@]1(O)[C@@H](COC(Cc2ccccc2)(C(=O)O)C(=O)O)O[C@@H](n2cnc3c(-c4cccs4)nc(Cl)nc32)[C@@H]1O [Example 18, 2-benzyl-2-(((2R,3S,4R,5R)-5-(2-chloro-6-(thiophen-2-yl)-9H-purin-9-yl)-3-ethynyl-3,4-dihydroxytetrahydrofuran-2-yl)methoxy)malonic acid]
0.2 nM | C#C[C@@]1(O)[C@@H](COC(Cc2ccc(-c3cccn(CCC)c3=O)cc2)(C(=O)O)C(=O)O)O[C@@H](n2cnc3c(N)nc(Cl)nc32)[C@@H]1O [Example 19, 2-(((2R,3S,4R,5R)-5-(6-amino-2-chloro-9H-purin-9-yl)-3-ethynyl-3,4-dihydroxytetrahydrofuran-2-yl)methoxy)-2-(4-(2-oxo-1-propy-1,2-dihydropyridin-3-yl)benzyl)malonic acid]
0.3 nM | C#C[C@@]1(O)[C@@H](COC(Cc2ccc(-c3cccn(CCO)c3=O)cc2)(C(=O)O)C(=O)O)O[C@@H](n2cnc3c(N)nc(Cl)nc32)[C@@H]1O [Example 21, 2-(((2R,3S,4R,5R)-5-(6-amino-2-chloro-9H-purin-9-yl)-3-ethynyl-3,4-dihydroxytetrahydrofuran-2-yl)methoxy)-2-(4-(1-(2-hydroxyethyl)-2-oxo-1,2-dihydropyridin-3-yl)benzyl)malonic acid]
0.3 nM | C#C[C@@]1(O)[C@@H](COC(Cc2ccc(-c3cccnc3OC)cc2)(C(=O)O)C(=O)O)O[C@@H](n2cnc3c(N)nc(Cl)nc32)[C@@H]1O [Example 22, 2-(((2R,3S,4R,5R)-5-(6-amino-2-chloro-9H-purin-9-yl)-3-ethynyl-3,4-dihydroxytetrahydrofuran-2-yl)methoxy)-2-(4-(2-methoxypyridin-3-yl)benzyl)malonic acid]

SMILES | IC50
C#C[C@@]1(O)[C@@H](COC(Cc2ccc(-c3cccn(COC)c3=O)cc2)(C(=O)O)C(=O)O)O[C@@H](n2cnc3c(N)nc(Cl)nc32)[C@@H]1O [Compound 11, 2-(((2R,3S,4R,5R)-5-(6-amino-2-chloro-9H-purin-9-yl)-3-ethynyl-3,4-dihydroxytetrahydrofuran-2-yl)methoxy)-2-(4-(1-(methoxymethyl)-2-oxo-1,2-dihydropyridin-3-yl)benzyl)malonic acid] | 0.06 nM
C#C[C@@]1(O)[C@@H](COC(Cc2ccc(-c3cccn(CC)c3=O)cc2)(C(=O)O)C(=O)O)O[C@@H](n2cnc3c(N)nc(Cl)nc32)[C@@H]1O [Example 20, 2-(((2R,3S,4R,5R)-5-(6-amino-2-chloro-9H-purin-9-yl)-3-ethynyl-3,4-dihydroxytetrahydrofuran-2-yl)methoxy)-2-(4-(1-ethyl-2-oxo-1,2-dihydropyridin-3-yl)benzyl)malonic acid] | 0.2 nM
